Results reported in PubChem BioAssay (NCI).
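Growth conditions: 96-well plates. Treatment: test compound, 48 hours, 5 concentrations. Analysis: linear interpolation between bracketing concentrations; unreached endpoints set to highest concentration. The concentration for 50% growth inhibition is given as GI50. TGI: total growth inhibition.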

How the values were obtained:
Assay in all cases: growth of human tumour cells (NCI), 48 h
[1] = test system: SK-MEL-28 melanoma
[2] = test system: OVCAR-8 ovarian
[3] = test system: SNB-75 CNS
[4] = test system: SNB-19 CNS
[5] = test system: UACC-62 melanoma
[6] = test system: SF-539 CNS
[7] = test system: UO-31 renal
[8] = test system: SK-OV-3 ovarian
[9] = test system: M14 melanoma
[10] = test system: HS 578T breast

O=C(O)NC(c1ccccc1)C(NC(=O)c1ccccc1)c1ccccc1 (stereo unspecified)
TGI [1]: > 100 µM | TGI [2]: > 100 µM | TGI [3]: > 100 µM | TGI [4]: > 100 µM | TGI [5]: > 100 µM | TGI [6]: > 100 µM

O=C(O)Cc1cc(=O)[nH]c2c1/C(=N/O)CCC2
TGI [1]: > 100 µM | TGI [7]: > 100 µM | TGI [2]: > 100 µM | TGI [8]: > 100 µM | TGI [4]: > 100 µM | TGI [9]: > 100 µM | TGI [6]: > 100 µM

C[C@]12CCC(=O)C(O)=C1CC[C@@H]1C2CC[C@]2(C)NC(=O)CCC12 (stereo partly specified)
TGI [1]: > 100 µM | TGI [7]: > 100 µM | TGI [2]: > 100 µM | TGI [3]: > 100 µM | TGI [8]: > 100 µM | TGI [4]: > 100 µM | TGI [9]: > 100 µM | TGI [5]: > 100 µM | TGI [6]: > 100 µM

CC(=O)[CH-]C(=O)c1ccccc1.CC(=O)[CH-]C(=O)c1ccccc1.CC(C)CCCC(C)[C@H]1CCC2[C@@H]3CC=C4C[C@@H]([O-])CC[C@]4(C)C3CC[C@@]21C.CC(C)CCCC(C)[C@H]1CCC2[C@@H]3CC=C4C[C@@H]([O-])CC[C@]4(C)C3CC[C@@]21C.[Ti+4] (stereo partly specified)
GI50 [1]: > 100 µM | TGI [1]: > 100 µM | GI50 [7]: > 100 µM | TGI [7]: > 100 µM | GI50 [2]: > 100 µM | TGI [2]: > 100 µM | GI50 [3]: > 100 µM | TGI [3]: > 100 µM | GI50 [8]: > 100 µM | TGI [8]: > 100 µM | GI50 [9]: > 100 µM | TGI [9]: > 100 µM | GI50 [5]: > 100 µM | TGI [5]: > 100 µM | GI50 [6]: > 100 µM | TGI [6]: > 100 µM

COc1ccc(C(=O)C(C(=O)CC(=O)Nc2cccc(C(F)(F)F)c2)c2ccc(OC)cc2)cc1 (stereo unspecified)
TGI [1]: > 100 µM | TGI [7]: > 100 µM | TGI [2]: > 100 µM | TGI [3]: 85.5 µM | TGI [8]: > 100 µM | TGI [4]: > 100 µM | TGI [9]: > 100 µM | TGI [5]: > 100 µM | TGI [6]: > 100 µM

O=C(Nc1ccc(Cl)cc1Cl)C1C(=O)C(=O)N(c2ccc(Cl)cc2Cl)C1=O (stereo unspecified)
TGI [1]: > 100 µM | TGI [7]: > 100 µM | TGI [2]: > 100 µM | TGI [3]: > 100 µM | TGI [8]: > 100 µM | TGI [4]: > 100 µM | TGI [9]: > 100 µM | TGI [5]: > 100 µM | TGI [6]: > 100 µM

O=C1C=CC(=O)C12CCc1ccccc12
TGI [1]: > 100 µM | TGI [7]: > 100 µM | TGI [2]: > 100 µM | TGI [3]: > 100 µM | TGI [8]: > 100 µM | TGI [4]: > 100 µM | TGI [9]: > 100 µM | TGI [5]: > 100 µM | TGI [6]: > 100 µM

O=C(CCc1nnc2s/c(=C\c3ccc(Cl)c(Cl)c3)c(=O)n12)Nc1ccc(Cl)c(Cl)c1
TGI [1]: > 100 µM | TGI [7]: > 100 µM | TGI [2]: 43.6 µM | TGI [3]: > 100 µM | TGI [8]: > 100 µM | TGI [4]: > 100 µM | TGI [9]: > 100 µM | TGI [5]: > 100 µM | TGI [6]: > 100 µM

Cn1nc(-c2ccccc2)c(C(=O)/C=C/c2ccc(Cl)cc2)c(N2CCCCC2)c1=O
TGI [1]: 14.3 µM | TGI [7]: 3.03 µM | TGI [2]: 16.5 µM | TGI [8]: 9.81 µM | TGI [4]: 4.72 µM | TGI [9]: 9.17 µM | TGI [5]: 5.82 µM | TGI [6]: 2.98 µM

CCOc1ccc(N=Cc2ccc3cc(C)ccc3n2)cc1
TGI [1]: > 100 µM | TGI [7]: > 100 µM | TGI [2]: > 100 µM | TGI [3]: > 100 µM | TGI [8]: > 100 µM | TGI [4]: > 100 µM | TGI [9]: > 100 µM | TGI [5]: > 100 µM | TGI [6]: > 100 µM

O=C1O/C(=C\c2ccccc2)N(c2ccccc2)C1=O
TGI [1]: > 100 µM | TGI [7]: > 100 µM | TGI [2]: > 100 µM | TGI [3]: > 100 µM | TGI [8]: > 100 µM | TGI [4]: > 100 µM | TGI [10]: > 100 µM | TGI [9]: > 100 µM | TGI [5]: > 100 µM

CC(=O)c1cccc(C)c1C(=O)O
TGI [1]: > 100 µM | TGI [7]: > 100 µM | TGI [2]: > 100 µM | TGI [3]: > 100 µM | TGI [8]: > 100 µM | TGI [4]: > 100 µM | TGI [9]: > 100 µM | TGI [5]: > 100 µM

O=C1O[C@H](c2ccccc2)[C@@H]2CC3(CCN12)OCCO3
TGI [1]: > 100 µM | TGI [7]: > 100 µM | TGI [2]: > 100 µM | TGI [4]: > 100 µM | TGI [9]: > 100 µM | TGI [5]: > 100 µM | TGI [6]: > 100 µM

CCN(CC)CCCNC(=O)C1COc2cc(-c3cc(=O)c4ccccc4o3)ccc2O1 (stereo unspecified)
TGI [1]: 40.8 µM | TGI [7]: > 100 µM | TGI [2]: > 100 µM | TGI [3]: > 100 µM | TGI [8]: > 100 µM | TGI [4]: > 100 µM | TGI [9]: 40 µM | TGI [5]: > 100 µM | TGI [6]: 38.9 µM

N#CC1=C(N)Oc2c(ccc3ccccc23)C1c1ccccc1 (stereo unspecified)
GI50 [1]: 0.944 µM | TGI [1]: 20.5 µM | GI50 [7]: 0.0622 µM | TGI [7]: 15.2 µM | GI50 [2]: 0.0551 µM | TGI [2]: 16.8 µM | GI50 [8]: 0.0796 µM | TGI [8]: 19 µM | GI50 [4]: 0.0579 µM | TGI [4]: 18.1 µM | GI50 [10]: 0.0316 µM | TGI [10]: 21.3 µM | GI50 [9]: 0.0348 µM | TGI [9]: 13.6 µM | GI50 [5]: 0.0567 µM | TGI [5]: 16 µM | GI50 [6]: 0.0311 µM | TGI [6]: 0.158 µM

NC(=O)CCC(Nc1c2ccccc2nc2ccccc12)C(=O)O (stereo unspecified)
TGI [1]: > 100 µM | TGI [2]: > 100 µM | TGI [3]: > 100 µM | TGI [9]: > 100 µM | TGI [6]: > 100 µM

COc1cc(OC)c(SSCCCCS(=O)O)c(OC)c1
TGI [1]: 29.7 µM | TGI [7]: 40.6 µM | TGI [2]: 34.1 µM | TGI [3]: 25.4 µM | TGI [8]: 38.6 µM | TGI [4]: 34.1 µM | TGI [9]: 27.5 µM | TGI [5]: 27.9 µM | TGI [6]: 29.5 µM

CC1=C(C(=O)Nc2cc(=O)n(C)c(=O)n2C)C(c2cccc([N+](=O)[O-])c2)C(C(=O)Nc2cc(=O)n(C)c(=O)n2C)=C(C)N1
TGI [1]: > 100 µM | TGI [7]: > 100 µM | TGI [2]: > 100 µM | TGI [3]: 99.5 µM | TGI [8]: > 100 µM | TGI [4]: > 100 µM | TGI [9]: > 100 µM | TGI [6]: 61.7 µM

COc1ccc2c3c([nH]c2c1[N+](=O)[O-])C(C)N(Cc1ccc([N+](=O)[O-])cc1)CC3 (stereo unspecified)
TGI [1]: 44.5 µM | TGI [7]: > 100 µM | TGI [2]: 64.4 µM | TGI [4]: > 100 µM | TGI [9]: 35.9 µM | TGI [5]: 52.4 µM | TGI [6]: > 100 µM

Cc1cccc(C)c1CO
TGI [7]: > 100 µM | TGI [2]: > 100 µM | TGI [3]: > 100 µM | TGI [8]: > 100 µM | TGI [4]: > 100 µM | TGI [9]: > 100 µM | TGI [5]: > 100 µM | TGI [6]: > 100 µM

CC(=O)CC(N)=O
TGI [1]: > 100 µM | TGI [7]: > 100 µM | TGI [2]: > 100 µM | TGI [3]: > 100 µM | TGI [8]: > 100 µM | TGI [4]: > 100 µM | TGI [9]: > 100 µM | TGI [5]: > 100 µM | TGI [6]: > 100 µM

COC(=O)C1=C(O)c2cc(-c3ccccc3)c(-c3ccccc3)c(C#N)c2NC(=O)C1
TGI [1]: > 100 µM | TGI [7]: > 100 µM | TGI [2]: > 100 µM | TGI [3]: 93.3 µM | TGI [4]: > 100 µM | TGI [9]: > 100 µM | TGI [5]: > 100 µM | TGI [6]: > 100 µM
